This note sets out measurements from PubChem BioAssay (NCI).

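Protocol summary: plate cells (96-well), add compound at 5 concentrations, incubate 48 h, interpolate endpoints linearly. The concentration for full growth arrest is given as TGI.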

Common to all, as to test: DTP human tumour cell line panel, 48 h
For assay [1], the system named is HOP-92 NSCLC.
Assay [2] relates to HCT-116 colon.
The test system of assay [3] is DU-145 prostate.
In assay [4] the test system is SNB-19 CNS.
Assay [5] concerns HL-60(TB) leukemia.
Assay [6] relates to MDA-MB-435.
Assay [7] relates to 786-0 renal.
Assay [8] has as its system A549 NSCLC.
The subject of assay [9] is OVCAR-4 ovarian.

Broadly, the TGI is the concentration at which net growth stops. In the case of `NC1(c2cc3ccccc3s2)CCCC1`, the total growth inhibition concentration (TGI) in assay [1], in assay [2], in [3], in [4], in assay [5] and in assay [6] was > 100 µM in each case. The concentration for total growth inhibition (TGI) in assay [7], in assay [8] and in [9] was > 100 µM each time.

For the molecule `O=S(=O)(c1ccccc1)c1cccc2c1NCCC2`, the concentration for total growth inhibition (TGI) is > 100 µM in assay [1]; > 100 µM in [2]; > 100 µM in [3]; > 100 µM in assay [4]; 67.4 µM in assay [5]; > 100 µM in assay [6]. Also, the total growth inhibition concentration (TGI) in [7], in assay [8] and in assay [9] was > 100 µM in each case.

Consider `CC(=O)N1C(C(=O)NC2CCCCC2)CSC1c1ccccc1` (stereo not given), for which the TGI in assay [1], in [2], in [3], in assay [4], in assay [5] and in assay [6] was > 100 µM each time. Moreover, the TGI in assay [7], in assay [8] and in assay [9] was > 100 µM throughout.

Turning to `Cc1ccccc1C(=N)c1ccccc1Cc1cccc2ccccc12`, the TGI is 54.8 µM in assay [1]; 46.9 µM in assay [2]; 42.5 µM in assay [3]; > 100 µM in assay [4]; 42.2 µM in assay [5]; 52.9 µM in assay [6]. Besides, the TGI in assay [7] is 41 µM; in [8] it was > 100 µM; in assay [9] it was > 100 µM.

As to `O=C(/C=C/c1ccc2c(c1)OCO2)c1ccc(O)cc1`, the TGI in assay [1] amounted to 28.8 µM; in assay [2], 26.2 µM; in assay [3], 30.1 µM; in assay [4], 30.5 µM; in assay [5] it was 28.7 µM; in assay [6], 34.1 µM. Moreover, the TGI was 3.01 µM in assay [7], 50.7 µM in assay [8] and 38.8 µM in [9].

Turning to `C(=C(c1ccc(OC2CCCCO2)cc1)c1ccc(OC2CCCCO2)cc1)c1ccccc1` (stereo not given), the TGI was determined as 1.96 µM in assay [1]; 1.64 µM in assay [2]; 2.11 µM in assay [3]; 2.54 µM in assay [4]; 1.19 µM in [5]; 1.7 µM in [6]. Besides, the results for the total growth inhibition concentration (TGI) in [7], in assay [8] and in assay [9] were 1.62 µM, 1.69 µM and 1.75 µM, respectively.

Take `CC1=Nc2ccccc2OC(C)=C1N=Nc1ccc2nc(C)[nH]c2c1`: the TGI in [1], in assay [2], in [3], in assay [4], in assay [5] and in assay [6] was > 100 µM in each case. Moreover, the TGI in assay [7], in assay [8] and in [9] was > 100 µM in each case.

Regarding `[N-]=[N+]=NC(c1ccccc1)(c1ccccc1)c1ccccc1`, the TGI in [1] turned out to be 32.3 µM; in assay [2], 30.2 µM; in [3] it was 36.1 µM; in assay [4], 39.5 µM; in assay [5], 39.4 µM; in assay [6] it was 44 µM. Also, the concentration for total growth inhibition (TGI) in [7] was found to be 31.5 µM; in assay [8], 34.3 µM; in [9], 57.9 µM.

On to `O=C(C1OC1c1ccc(Br)cc1O)C12CC3CC(CC(C3)C1)C2` (stereo not given), for which the total growth inhibition concentration (TGI) in [1] was 48.8 µM; in assay [2], 30.9 µM; in assay [3] it was > 100 µM; in [4], > 100 µM; in assay [5], 40.9 µM; in assay [6], 30.4 µM. Besides, the concentration for total growth inhibition (TGI) was 32.4 µM in assay [7], > 100 µM in [8] and 81.4 µM in assay [9].

With `Oc1ccccc1CNCc1nc2ccccc2[nH]1`, the concentration for total growth inhibition (TGI) in [1], in assay [2], in assay [3], in [4], in [5] and in assay [6] was > 100 µM in each case. Besides, the TGI in assay [7], in [8] and in assay [9] was > 100 µM throughout.

With `CCOC(=O)c1c(CN2CCCC2)n(-c2ccccc2)c2cc(Br)c(O)cc12`, the total growth inhibition concentration (TGI) in assay [1] turned out to be 44 µM; in assay [2], 30.3 µM; in assay [3] it was 39.5 µM; in assay [4], 33.3 µM; in assay [5], 27.5 µM; in assay [6] it was 33.2 µM. The total growth inhibition concentration (TGI) is 31 µM in assay [7], 32 µM in assay [8] and 31.6 µM in [9].

Consider `O=C(/C=C/c1ccccc1)C[C@@H](O)C[C@@H]1CC=CC(=O)O1`, for which the TGI in assay [1] is 16 µM; in assay [2], 6.38 µM; in [3] it was > 60.5 µM; in assay [4], 35.7 µM; in assay [5], 5.06 µM; in [6], 26.6 µM. In addition, the TGI in assay [7] came out at 12 µM; in assay [8] it was 52.2 µM; in assay [9], 45.7 µM.

With `CC(C)c1cc2c(cc1S(=O)(=O)O)[C@@]1(C)CCC[C@@](C)(C(=O)O)C1CC2` (stereo not given in full), the concentration for total growth inhibition (TGI) in assay [1], in [2], in assay [3], in [4], in [5] and in assay [6] was > 100 µM each time. For the same molecule, the concentration for total growth inhibition (TGI) in [7], in [8] and in assay [9] was > 100 µM in each case.

For the molecule `Cc1ccc(-c2csc(=Nc3ccccc3)n2NC(=O)c2ccncc2)cc1`, the total growth inhibition concentration (TGI) was > 100 µM in [1]; > 100 µM in assay [2]; > 100 µM in [3]; > 100 µM in assay [4]; > 69.2 µM in assay [5]; > 100 µM in assay [6]. The TGI in assay [7], in [8] and in assay [9] was > 100 µM throughout.

As for `O=C(OCc1ccccc1)N1CCNCCN(C(=O)OCc2ccccc2)CCNCC1`, the TGI in [1] is > 100 µM; in [2] it was 42.9 µM; in assay [3], > 100 µM; in assay [4], > 100 µM; in assay [5], 93.4 µM; in [6], 64.6 µM. Moreover, the TGI in [7] was 47.9 µM; in [8] it was > 100 µM; in assay [9], > 100 µM.

With `CCC(=O)NCC1CCCN2CCCCC12` (stereo not given), the TGI in [1], in [2], in assay [3], in assay [4], in [5] and in [6] was > 100 µM each time. Further, the concentration for total growth inhibition (TGI) in assay [7], in assay [8] and in assay [9] was > 100 µM throughout.

On to `Cc1ccc(NC(=O)c2ccc(OP(=O)(O)Nc3ccc(C)cc3)cc2)cc1`, for which the TGI in [1], in assay [2], in assay [3], in assay [4], in assay [5] and in assay [6] was > 100 µM each time. Moreover, the concentration for total growth inhibition (TGI) in assay [7], in assay [8] and in assay [9] was > 100 µM throughout.

As for `S=C(N/N=C(/c1ccccc1)c1ccccn1)N(Cc1ccccn1)Cc1ccccn1`, the concentration for total growth inhibition (TGI) was 1.45 µM in assay [1]; 1.59 µM in [2]; 4.42 µM in assay [3]; 2.26 µM in assay [4]; > 100 µM in assay [5]; 3.56 µM in assay [6]. Also, the concentration for total growth inhibition (TGI) in assay [7] was 2.04 µM; in assay [8] it was 2.01 µM; in [9] it was 1.73 µM.

As to `Cn1c(=O)c2c(nc3n2CC(C(=O)O)N3)n(C)c1=O` (stereo not given), the concentration for total growth inhibition (TGI) in assay [1], in [2], in [3], in assay [4], in assay [5] and in assay [6] was > 100 µM each time. Moreover, the total growth inhibition concentration (TGI) in [7], in assay [8] and in assay [9] was > 100 µM throughout.

`CCCCOC(=O)Nc1ccc(S(=O)(=O)Nc2ccccc2Cl)cc1`: the total growth inhibition concentration (TGI) was 30 µM in assay [1]; 41.6 µM in assay [2]; > 100 µM in [3]; 49.8 µM in assay [4]; 59.5 µM in assay [5]; 36 µM in assay [6]. For the same molecule, the TGI is 41.8 µM in assay [7], > 100 µM in assay [8] and 41.2 µM in [9].

Turning to `O=c1[nH]c(=S)[nH]c2c1C(c1ccc([N+](=O)[O-])cc1)c1c([nH]c(=S)[nH]c1=O)O2`, the TGI in assay [1], in [2], in [3], in assay [4], in assay [5] and in assay [6] was > 100 µM throughout. The TGI in assay [7], in assay [8] and in assay [9] was > 100 µM each time.

With `O=[N+]([O-])c1ccc2[nH]nc(OCc3ccccc3Cl)c2c1`, the TGI in assay [1] is 47.4 µM; in assay [2], 74.7 µM; in assay [3], > 100 µM; in assay [4], > 100 µM; in assay [5], > 100 µM; in [6], > 100 µM. In addition, the concentration for total growth inhibition (TGI) was 59.4 µM in assay [7], > 100 µM in assay [8] and > 100 µM in assay [9].

Take `CCCCCC1=CC(=O)C1(Cl)Cl`: the TGI in assay [1] was 63.3 µM; in assay [2], 28.4 µM; in [3], 26.1 µM; in [4], > 67.3 µM; in assay [5] it was 4.06 µM; in assay [6], 33 µM. For the same molecule, the values for the TGI in [7], in [8] and in assay [9] were 35.8 µM, 71.5 µM and 38.1 µM, respectively.

With `C[C@]12CC[C@H](O)CC1=CC[C@@H]1[C@@H]2CC[C@]2(C)C(=N/N)/C(=N\O)C[C@@H]12`, the TGI was 11.8 µM in assay [1]; > 100 µM in [2]; > 100 µM in [3]; > 100 µM in [4]; 67.7 µM in [5]; 5 µM in assay [6]. For the same molecule, the concentration for total growth inhibition (TGI) in assay [7], in [8] and in [9] was > 100 µM each time.

Take `Nc1nccc(-c2c[nH]c3cc(Br)ccc23)n1`: the concentration for total growth inhibition (TGI) was 63.8 µM in assay [1]; 40.2 µM in assay [2]; > 100 µM in assay [3]; 47.5 µM in [4]; > 100 µM in assay [5]; 80.4 µM in assay [6]. Moreover, the TGI in assay [7] was 46.9 µM; in [8], 35.5 µM; in [9] it was > 100 µM.

As for `CC(=O)Nn1c(=S)[nH]c2ccccc21`, the concentration for total growth inhibition (TGI) in assay [1], in assay [2], in assay [3], in assay [4], in [5] and in [6] was > 100 µM throughout. The total growth inhibition concentration (TGI) in [7], in assay [8] and in assay [9] was > 100 µM throughout.

Consider `Cc1ccnc(NS(=O)(=O)c2ccc(N=[N+]=[N-])cc2)n1`, for which the total growth inhibition concentration (TGI) was > 100 µM in assay [1]; > 100 µM in assay [2]; > 100 µM in [3]; > 100 µM in assay [4]; > 86.3 µM in [5]; > 100 µM in [6]. In addition, the TGI in assay [7], in assay [8] and in assay [9] was > 100 µM throughout.

On to `c1ccc2c(c1)Cn1c-2nc2ccccc21`, for which the TGI in assay [1], in assay [2], in assay [3], in assay [4], in assay [5] and in [6] was > 100 µM throughout. The concentration for total growth inhibition (TGI) in assay [7], in assay [8] and in assay [9] was > 100 µM each time.

Take `COc1cccc(Nc2nc(-c3cccs3)nc3cc(OC)c(OC)cc23)c1`: the concentration for total growth inhibition (TGI) in assay [1] was 51.9 µM; in [2], 54 µM; in [3], > 100 µM; in [4], > 100 µM; in [5] it was > 100 µM; in [6], 96.4 µM. In addition, the total growth inhibition concentration (TGI) was 46 µM in assay [7], > 100 µM in [8] and > 100 µM in [9].

Regarding `C=CC1(CC/C(=C\[N+](=O)[O-])c2ccc(OC)c(OC)c2)OCC(C)(C)CO1`, the TGI in assay [1] stood at 54.8 µM; in assay [2], 71.9 µM; in [3], 33.1 µM; in [4], 35.7 µM; in [5], 34.1 µM; in [6] it was 56.3 µM. In addition, the TGI is 37.9 µM in [7], > 100 µM in assay [8] and 31.5 µM in assay [9].
